From patent publication US11357857B2, “Excipient compounds for protein processing” (COMERA LIFE SCIENCES, INC., priority 2014, dated 2022)
Several values for one entry are separate records, joined by “and”; a condition that tells them apart may be missing. Equal entries are not always repeated. Structures can show the parent of a compound that is named as a salt. Where two headings read alike, the source gives them in different places. One block for each compound: values may come before it.

Tests used:
[1] = test system: bovine gamma globulin (BGG)
[2] = test system: bovine gamma globulin (BGG); assay: Viscosity of 280 mg/mL BGG formulations in 50 mM histidine HCl pH 6 with excipient, cone and plate viscometer (Examples 1, 2, 4-6); assay type: physicochemical
[3] = Caffeine solubility testing with co-solutes at ambient temperature (Examples 32-33); details: for Observation of caffeine dissolution: caffeine 80 mg/mL; for Dissolution of caffeine enabled relative to reported solubility limit: co-solute in water, ambient temperature (about 23 C)
Procedure: Prepared solutions were used either neat or diluted with deionized water.
A small magnetic stir bar was added to the vial, and the solution was allowed to mix vigorously on a stir plate for about 10 minutes.

[4] = test system: bovine gamma globulin (BGG); assay: Normalized viscosity of 280 mg/mL BGG in 20 mM histidine with excipients A/B (Example 20); assay type: physicochemical; details: no B
Excerpt: Excipient compounds for this Example are listed below in Table 11.

[5] = Viscosity of PEG (Mw ~1,000,000) solution in Tris buffer with excipient (Examples 12-13); assay type: physicochemical

Viscosity Reduction ([1]; excipient 50 mg/mL): 33%
Compound: CCN(CC)C(=O)c1cccnc1 [N,N-diethyl nicotinamide]

Viscosity ([2]; excipient 30 mg/mL): 45 cP | Viscosity Reduction ([2]; excipient 30 mg/mL): 43% | Viscosity ([2]; excipient 52 mg/mL): 52 cP | Viscosity Reduction ([2]; excipient 52 mg/mL): 34%
Compound: CN1CCCC1=O [N-Methyl-2-pyrrolidone]

Viscosity ([2]; excipient 48 mg/mL): 39 cP | Viscosity Reduction ([2]; excipient 48 mg/mL): 51% | Observation of caffeine dissolution ([3]; co-solute 30 mg/mL): DND | Viscosity Reduction ([1]; excipient 50 mg/mL): 49%
Compound: NC(=O)c1cccnc1 [Niacinamide]

Compound: O=C([O-])c1cccnc1.[Na+] [Nicotinic acid, sodium salt]
Viscosity Reduction ([1]; excipient 100 mg/mL): 46%

Viscosity ([2]; excipient 26 mg/mL): 58 cP | Viscosity Reduction ([2]; excipient 26 mg/mL): 27% | Viscosity ([2]; excipient 58 mg/mL): 50 cP | Viscosity Reduction ([2]; excipient 58 mg/mL): 37% | Viscosity ([2]; excipient 76 mg/mL): 49 cP | Viscosity Reduction ([2]; excipient 76 mg/mL): 38% | Viscosity ([2]; excipient 103 mg/mL): 46 cP | Viscosity Reduction ([2]; excipient 103 mg/mL): 42% | Viscosity ([2]; excipient 129 mg/mL): 47 cP | Viscosity Reduction ([2]; excipient 129 mg/mL): 41% | Viscosity ([2]; excipient 159 mg/mL): 42 cP | Viscosity Reduction ([2]; excipient 159 mg/mL): 47% | Viscosity ([2]; excipient 163 mg/mL): 42 cP | Viscosity Reduction ([2]; excipient 163 mg/mL): 47%
Compound: N=C(N)NCCS(=O)(=O)O [Product of Example 8, Guanyl taurine]

Observation of caffeine dissolution ([3]; co-solute 45 mg/mL): DND | Dissolution of caffeine enabled relative to reported solubility limit [3]: at least about four times
Compound: O=C1NS(=O)(=O)c2ccccc21.[Na] [Saccharin, Na, saccharin sodium salt]

Normalized Viscosity ([4]; excipient A 30 mg/mL): 0.58 | Normalized Viscosity ([4]; excipient A 60 mg/mL): 0.51
Compound: O=C1NS(=O)(=O)c2ccccc21 [Saccharin]

Compound: O=C([O-])c1ccccc1.[Na+] [Sodium benzoate]
Viscosity ([2]; excipient 31 mg/mL): 61 cP | Viscosity Reduction ([2]; excipient 31 mg/mL): 23% | Viscosity ([2]; excipient 56 mg/mL): 62 cP | Viscosity Reduction ([2]; excipient 56 mg/mL): 22%

Viscosity Reduction ([1]; excipient 55 mg/mL): 43%
Compound: O=C([O-])C(=O)Cc1ccccc1.[Na+] [Sodium phenylpyruvate]

Compound: O=C([O-])c1ccccc1O.[Na+] [Sodium salicylate]
Viscosity [2]: 57 cP and 52 cP

Viscosity ([2]; excipient 44 mg/mL): 49 cP | Viscosity Reduction ([2]; excipient 44 mg/mL): 38% | Viscosity ([2]; excipient 96 mg/mL): 42 cP | Viscosity Reduction ([2]; excipient 96 mg/mL): 47%
Compound: Nc1ccc(S(=O)(=O)[O-])cc1.[Na+] [Sodium sulfanilate]

Normalized Viscosity ([4]; excipient A 10 mg/mL): 0.84
Compound: Cn1c(=O)c2[nH]cnc2n(C)c1=O [Theophylline]

Compound: Cl.NCCc1ccc(O)cc1 [Tyramine HCl]
Observation of caffeine dissolution ([3]; co-solute 30 mg/mL): DND | Dissolution of caffeine enabled relative to reported solubility limit [3]: at least about four times | Viscosity Reduction ([1]; excipient 70 mg/mL): 59%

Viscosity ([2]; excipient 25 mg/mL): 56 cP | Viscosity Reduction ([2]; excipient 25 mg/mL): 29% | Viscosity ([2]; excipient 50 mg/mL): 50 cP | Viscosity Reduction ([2]; excipient 50 mg/mL): 37%
Compound: COc1cc(C(=O)[O-])ccc1O.[Na+] [Vanillic acid, sodium salt]

Viscosity ([5]; excipient 12 mg/mL): 80.5 cP | Viscosity Reduction ([5]; excipient 12 mg/mL): 23% | Viscosity ([5]; excipient 24 mg/mL): 71.91 cP | Viscosity Reduction ([5]; excipient 24 mg/mL): 31%
Compound: CC(O)(P(=O)(O)O)P(=O)(O)O [etidronic acid/K salt, etidronic acid]

Viscosity ([5]; excipient 12 mg/mL): 79.4 cP | Viscosity Reduction ([5]; excipient 12 mg/mL): 24% | Viscosity ([5]; excipient 24 mg/mL): 71.6 cP | Viscosity Reduction ([5]; excipient 24 mg/mL): 32%
Compound: CC(O)(P(=O)(O)O)P(=O)(O)O [etidronic acid/Na salt, etidronic acid]

Viscosity ([5]; excipient 20 mg/mL): 83.9 cP | Viscosity Reduction ([5]; excipient 20 mg/mL): 18% | Viscosity ([5]; excipient 40 mg/mL): 71.7 cP | Viscosity Reduction ([5]; excipient 40 mg/mL): 30%
Compound: O=P(O)(O)OCC(O)CO (stereo not shown) [glycerol phosphate]

Viscosity ([2]; excipient 50 mg/mL): 57 cP | Viscosity Reduction ([2]; excipient 50 mg/mL): 28% | Viscosity ([2]; excipient 100 mg/mL): 62 cP | Viscosity Reduction ([2]; excipient 100 mg/mL): 22%
Compound: Arg-Arg [Dipeptide RR (Arg-Arg)]

Viscosity ([2]; excipient 50 mg/mL): 50 cP | Viscosity Reduction ([2]; excipient 50 mg/mL): 37% | Viscosity ([2]; excipient 100 mg/mL): 66 cP | Viscosity Reduction ([2]; excipient 100 mg/mL): 16%
Compound: Arg-Glu [Dipeptide RE (Arg-Glu)]

Viscosity ([2]; excipient 50 mg/mL): 52 cP | Viscosity Reduction ([2]; excipient 50 mg/mL): 34% | Viscosity ([2]; excipient 100 mg/mL): 72 cP | Viscosity Reduction ([2]; excipient 100 mg/mL): 9%
Compound: Arg-His [Dipeptide RH (Arg-His)]

Viscosity ([2]; excipient 50 mg/mL): 53 cP | Viscosity Reduction ([2]; excipient 50 mg/mL): 33% | Viscosity ([2]; excipient 100 mg/mL): 64 cP | Viscosity Reduction ([2]; excipient 100 mg/mL): 19%
Compound: Arg-Lys [Dipeptide RK (Arg-Lys)]

Viscosity ([2]; excipient 50 mg/mL): 51 cP | Viscosity Reduction ([2]; excipient 50 mg/mL): 35% | Viscosity ([2]; excipient 100 mg/mL): 53 cP | Viscosity Reduction ([2]; excipient 100 mg/mL): 33%
Compound: Arg-Pro [Dipeptide RP (Arg-Pro)]

Viscosity ([2]; excipient 50 mg/mL): 72 cP | Viscosity Reduction ([2]; excipient 50 mg/mL): 9% | Viscosity ([2]; excipient 100 mg/mL): 87 cP | Viscosity Reduction ([2]; excipient 100 mg/mL): −10%
Compound: Leu-Glu [Dipeptide LE (Leu-Glu)]

Viscosity ([2]; excipient 50 mg/mL): 60 cP | Viscosity Reduction ([2]; excipient 50 mg/mL): 24% | Viscosity ([2]; excipient 100 mg/mL): 59 cP | Viscosity Reduction ([2]; excipient 100 mg/mL): 25%
Compound: Trp2Lys3

Viscosity ([2]; excipient 50 mg/mL): 55 cP | Viscosity Reduction ([2]; excipient 50 mg/mL): 30% | Viscosity ([2]; excipient 100 mg/mL): 68 cP | Viscosity Reduction ([2]; excipient 100 mg/mL): 14%
Compound: Tyr-Glu [Dipeptide YE (Tyr-Glu)]

Compound: dimethylcyclohexylammonium hydroxybenzoate [DMCHA-hydroxybenzoate]
Viscosity ([2]; excipient 67 mg/mL): 46 cP | Viscosity Reduction ([2]; excipient 67 mg/mL): 42% | Viscosity ([2]; excipient 92 mg/mL): 42 cP | Viscosity Reduction ([2]; excipient 92 mg/mL): 47%
